# Experiments:
# Ras [1] = assay: Ras localisation, cytosol versus membrane association; type: cell-based; conditions: for membrane association of Ras: cells treated with lovastatin plus azido-farnesyl substrate
# Source text: Farnesylated Ras protein is plasma-membrane associated while the unprocessed isoform is mainly located in cytosol.
# COS cells = assay: global detection of F-azide modified proteins by Western blotting after conjugation to biotinylated phosphine capture reagent; type: cell-based; conditions: COS cells dosed with lovastatin and substrate; signals competed away by 0.1 mM D-biotin
# Description: FIG. 4. Global detection of F-azide modified proteins by Western blotting analysis. COS cells were labeled with DMSO, or FPP N3 with or without lovastatin, as indicated, for 24 h. The protein lysates from the cells were precipitated by acetone/TCA method, redissolved in a buffer containing 2% SDS and PBS. The resulting solution was conjugated to biotinylated phosphine capture reagents or not, precipitated by acetone/TCA method again. The protein pellet was redissolved in 1×SDS sample buffer, resolved in SDS-PAGE, and detected by Western blotting analysis using streptavidin-conjugated HRP with or without biotin.
# To further test whether proteins could be modified by F-azide and subsequently detected, Western blotting analysis was carried out in order to detect F-azide modified proteins. The protein whole-cell lysate from the cells dosed with lovastatin and FPP azide was subjected to conjugation reaction using biotinylated phosphine capture reagent. The resulting lysate was resolved using a SDS-PAGE gel and the biotinylated proteins detected by Western blotting analysis using HRP-conjugated streptavidin.
# COS-1 cells were grown in Dulbecco's modified Eagle's medium supplemented with 10% fetal bovine serum, 1% penicillin/streptomycin. When cells reached to 70% confluence, lovastatin was added and incubated for suitable amount of time prior to adding FPP azide. […]
# cells = assay: growth rate of cells cultured in DMEM media with the labeling compounds; type: cell-based; conditions: DMEM media containing lovastatin, FPP-azide/F-azide-OH, and GG-OH together
# Source text: Several lines of evidence indicate that F-azide modified proteins maintain the major characteristics of naturally farnesylated proteins. First, F-azide-modified Ras retains GTPase activity. Second, F-azide modification induced Ras' membrane association.
# Ras [2] = assay: mobility-shift assay of Ras in labeled COS-1 cells (SDS-PAGE/Western blot); type: cell-based; conditions: 24 h; for effect on lovastatin-induced mobility shift of Ras: COS-1 cells treated with lovastatin
# Description: FIG. 3. Detection of F-azide modified Ras and HDJ-2 by mobility-shift assay. Mobility-shift assay of Ras (A) and HDJ-2 (B). COS-1 cells were labeled with the indicated compounds for 24 h, the cell lysate were resolved in SDS-PAGE and probed using anti-Ras and anti-HDJ-2 antibodies, respectively. The letters, “u” and “p”, indicate the unmodified and isoprenylated forms of the protein, respectively.
# To determine if the cell will process exogenous azido-farnesyl substrates, metabolic labeling of cells was carried out with synthetic substrates, either FPP azide or F-azide-OH, and mobility-shift assays were performed for Ras and HDJ-2 in order to determine if they are posttranslationally modified. Unprocessed Ras and HDJ-2 move more slowly than their farnesylated isoforms, therefore allowing separation in SDS-PAGE and subsequent detection by Western blotting analysis (James, 1994; Adjei, 2000).
# COS-1 cells were grown in Dulbecco's modified Eagle's medium supplemented with 10% fetal bovine serum, 1% penicillin/streptomycin. When cells reached to 70% confluence, lovastatin was added and incubated for suitable amount of time prior to adding FPP azide.
# Cells were harvested and lysed in 1 ml of lysis buffer (50 mM HEPES pH 7.6, 250 mM sodium chloride, 1.5 mM magnesium chloride, 1 mM EDTA, 10% (v/v) glycerol, 1% Triton X-100, and protease inhibitor cocktail (Roche Molecular Biochemicals, Indianapolis, Ind.)). The protein lystes were resolved in a 15% SDS-polyacrylamide gel, and transferred to PVDF membrane. The membrane was washed with TBST buffer (0.1% Tween 20, 150 mM NaCl, 25 mM TrisCl, pH 7.5), blocked for 2 h with a solution containing 5% (w/v) dried nonfat milk in TTBS, and immunoblotted for 2 h with an antibody in a blocking buffer (5% BSA in TTBS). After washing 4 times with TBST with changes every 15 min., the membrane was incubated with HRP-conjugated secondary antibody in TBST (1:5000 dilution) with 5% non-fat milk. The membrane was washed again for 4 times in TBST and visualized by enhanced chemiluminescence.
# Ras [3] = assay: immunoprecipitation of Ras, conjugation to biotinylated phosphine capture reagent and Western blotting; type: cell-based; conditions: cells dosed with FPP-azide versus control cells
# Source text: The resulting immunocomplexes were resolubilized in 1×SDS sample buffer and then subjected to conjugation reaction using biotinylated phosphine capture reagents, respectively. The free biotinylated capture reagent was removed by a desalting column, resolved in SDS-PAGE, and then detected by Western blotting analysis […]. Protein signals corresponding molecular weights of HDJ-2 and Ras were detected from the cells dosed with FPP-azide but not in the control cells.
# FTase = FTase (Homo sapiens, UniProt P49354+P49356); assay: in vitro farnesylation reaction of RC peptide (KKFFCAIS) with FTase, MALDI-TOF readout; type: biochemical
# Chain of FTase (P49356 whole entry, one chain of several): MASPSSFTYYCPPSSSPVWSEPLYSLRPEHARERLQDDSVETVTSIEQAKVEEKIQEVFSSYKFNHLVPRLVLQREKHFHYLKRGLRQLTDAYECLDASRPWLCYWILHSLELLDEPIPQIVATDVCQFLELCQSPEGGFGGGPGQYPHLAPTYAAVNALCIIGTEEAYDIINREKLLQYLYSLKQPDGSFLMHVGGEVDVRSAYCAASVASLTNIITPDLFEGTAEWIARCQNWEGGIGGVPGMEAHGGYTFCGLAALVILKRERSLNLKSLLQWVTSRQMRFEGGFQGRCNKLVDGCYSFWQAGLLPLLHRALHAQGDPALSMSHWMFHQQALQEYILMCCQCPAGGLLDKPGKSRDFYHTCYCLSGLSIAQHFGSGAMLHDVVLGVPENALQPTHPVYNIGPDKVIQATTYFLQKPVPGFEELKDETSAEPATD
# Description: FIG. 2. FPP azide is a substrate for in vitro farnesylation reaction. MALDI-TOF mass spectra of RC peptide before (A) and after (B) in vitro farnesylation reaction. One hundred pmol RC-peptide (KKFFCAIS) were mixed with 3000 pmol FPP azide and 35 pmol FTase in 7 μl reaction buffer and incubated at 30° C. for 10 h. The F-azide modified RC-peptide was confirmed by mass spectrometry (m/z, 1191).
# To determine whether farnsyltransferase can use FPP azide as a substrate for protein farnesylation, an in-vitro enzymatic reaction was carried out between a CAAX-box containing peptide (RC peptide, KKFFCAIS) and FPP azide.
# The molecular masses of the peptide prior to and after enzymatic reaction were determined by MALDI-TOF mass spectrometry. F-azide-modified peptide was detected after enzymatic reaction (m/z, 1191 Da, a mass increase of 246 Da over RC peptide) (FIG. 2).
# In a parallel study, an enzymatic reaction was carried out with FPP, the natural substrate for protein farnesylation.
Compound,membrane association of Ras (Ras [1]),F-azide modified proteins detected by Western blotting with HRP-conjugated streptavidin (COS cells),growth rate of cells compared with cells cultured without the compounds (cells),effect on lovastatin-induced mobility shift of Ras (Ras [2]),localisation of Ras (Ras [1]; cells treated with lovastatin),"mobility shift of Ras (Ras [2]; COS-1 cells, compound alone)",protein signal at the molecular weight of Ras (Ras [3]),"substrate for the farnesyltransfer reaction in vitro (FTase; RC peptide, FTase)","reaction rate with RC peptide compared with FPP (FTase; in vitro enzymatic reaction, parallel study with natural substrate FPP)"
"CC(=CCO)CCC=C(C)CCC=C(C)CN=[N+]=[N-] [F-azide-OH, azido-farnesyl alcohol]",restore membrane association,detection of multiple proteins,comparable growth rate,reversed the mobility shift,–,–,–,–,–
"CC[C@H](C)C(=O)O[C@H]1C[C@@H](C)C=C2C=C[C@H](C)[C@H](CC[C@@H]3C[C@@H](O)CC(=O)O3)[C@H]21 [lovastatin, reference compound]",–,–,–,–,mainly detected in cytosol,induce mobility shift,–,–,–
azido farnesyl diphosphate [FPP azide],restore membrane association,detection of multiple proteins,comparable growth rate,reversed the mobility shift,–,–,detected,good substrate,somewhat faster
"CC(C)=CCC/C(C)=C/CC/C(C)=C/CC/C(C)=C/CO [GG-OH, geranylgeranyl alcohol, reference compound]",–,–,–,not affect the mobility shifts,–,–,–,–,–

# From patent US7070941B2, “Methods and compositions for tagging via azido substrates” (Board of Regents, The University of Texas System, priority 2003, dated 2006)
